Data taken from ChEMBL document CHEMBL5303573, “Mapping human microbiome drug metabolism by gut bacteria and their genes” (Nature, 2019).

What was measured:
[1] = The drug is tested on Clostridium symbiosum strain: ATCC14940 for biotransformation. The drug concentrations were measured before and after a 12-h incubation by liquid-chromatography-coupled mass spectrometry (LC–MS); details: 2 µM
[2] = segatella copri, 12 h, 2 µM
[3] = The drug is tested on Eubacterium ventriosum strain: ATCC27560 for biotransformation. The drug concentrations were measured before and after a 12-h incubation by liquid-chromatography-coupled mass spectrometry (LC–MS); assay type: ADME; set-up: dose 2 uM, timepoint 0 vs 12 hours; details: 2 µM
[4] = The drug is tested on Coprococcus comes strain: ATCC27758 for biotransformation. The drug concentrations were measured before and after a 12-h incubation by liquid-chromatography-coupled mass spectrometry (LC–MS); assay type: ADME; set-up: dose 2 uM, timepoint 0 vs 12 hours; details: 2 µM
[5] = limosilactobacillus reuteri cf48-3a, 12 h, 2 µM
[6] = The drug is tested on Eubacterium rectale strain: ATCC33656 for biotransformation. The drug concentrations were measured before and after a 12-h incubation by liquid-chromatography-coupled mass spectrometry (LC–MS); details: agathobacter rectalis, 2 µM
[7] = The drug is tested on Bacteroides sp. WH2 strain: WH2 for biotransformation. The drug concentrations were measured before and after a 12-h incubation by liquid-chromatography-coupled mass spectrometry (LC–MS); details: bacteroides sp. wh2, 12 h, 2 µM
[8] = bacteroides intestinalis, 12 h, 2 µM
[9] = The drug is tested on Blautia luti strain: DSM14534 for biotransformation. The drug concentrations were measured before and after a 12-h incubation by liquid-chromatography-coupled mass spectrometry (LC–MS); assay type: ADME; set-up: dose 2 uM, timepoint 0 vs 12 hours; details: 2 µM
[10] = The drug is tested on Providencia stuartii strain: ATCC25827 for biotransformation. The drug concentrations were measured before and after a 12-h incubation by liquid-chromatography-coupled mass spectrometry (LC–MS); details: 2 µM
[11] = The drug is tested on Enterobacter cancerogenus strain: ATCC35316 for biotransformation. The drug concentrations were measured before and after a 12-h incubation by liquid-chromatography-coupled mass spectrometry (LC–MS); details: 2 µM
[12] = The drug is tested on Bifidobacterium ruminantium strain: fecal isolate for biotransformation. The drug concentrations were measured before and after a 12-h incubation by liquid-chromatography-coupled mass spectrometry (LC–MS); details: 2 µM
[13] = The drug is tested on Subdoligranulum variabile strain: DSM15176 for biotransformation. The drug concentrations were measured before and after a 12-h incubation by liquid-chromatography-coupled mass spectrometry (LC–MS); details: 2 µM
[14] = enterocloster bolteae, 12 h, 2 µM
[15] = The drug is tested on Dorea formicigenerans strain: ATCC27755 for biotransformation. The drug concentrations were measured before and after a 12-h incubation by liquid-chromatography-coupled mass spectrometry (LC–MS); details: 2 µM
[16] = The drug is tested on Bacteroides ovatus strain: ATCC8483 for biotransformation. The drug concentrations were measured before and after a 12-h incubation by liquid-chromatography-coupled mass spectrometry (LC–MS); details: 2 µM
[17] = The drug is tested on Bacteroides cellulosilyticus strain: DSM14838 for biotransformation. The drug concentrations were measured before and after a 12-h incubation by liquid-chromatography-coupled mass spectrometry (LC–MS); details: 2 µM
[18] = The drug is tested on Ruminococcus gnavus strain: ATCC29149 for biotransformation. The drug concentrations were measured before and after a 12-h incubation by liquid-chromatography-coupled mass spectrometry (LC–MS); details: mediterraneibacter gnavus, 2 µM
[19] = bifidobacterium adolescentis, 12 h, 2 µM
[20] = The drug is tested on Bacteroides xylanisolvens strain: DSM18836 for biotransformation. The drug concentrations were measured before and after a 12-h incubation by liquid-chromatography-coupled mass spectrometry (LC–MS); details: 2 µM

SMILES: CCCCCCOC(=O)/N=C(/N)c1ccc(NCc2nc3cc(C(=O)N(CCC(=O)OCC)c4ccccn4)ccc3n2C)cc1.CS(=O)(=O)O [DABIGATRAN ETEXILATE MESYLATE]
- Bacterial Biotransformation [1]: Compound NOT metabolized
- Bacterial Biotransformation [2]: Compound NOT metabolized
- Bacterial Biotransformation [3]: Compound NOT metabolized
- Bacterial Biotransformation [4]: Compound NOT metabolized
- Bacterial Biotransformation [5]: Compound NOT metabolized
- Bacterial Biotransformation [6]: Compound NOT metabolized
- Bacterial Biotransformation [7]: Compound NOT metabolized
- Bacterial Biotransformation [8]: Compound NOT metabolized
- Bacterial Biotransformation [9]: Compound NOT metabolized
- Bacterial Biotransformation [10]: Compound NOT metabolized
- Bacterial Biotransformation [11]: Compound NOT metabolized
- Bacterial Biotransformation [12]: Compound NOT metabolized
- Bacterial Biotransformation [13]: Compound NOT metabolized
- Bacterial Biotransformation [14]: Compound NOT metabolized
- Bacterial Biotransformation [15]: Compound NOT metabolized
- Bacterial Biotransformation [16]: Compound NOT metabolized
- Bacterial Biotransformation [17]: Compound NOT metabolized
- Bacterial Biotransformation [18]: Compound NOT metabolized
- Bacterial Biotransformation [19]: Compound NOT metabolized

SMILES: C[C@@H](CO)NC(=O)[C@@H]1C=C2c3cccc4[nH]cc(c34)C[C@H]2N(C)C1.O=C(O)/C=C\C(=O)O [ERGONOVINE MALEATE]
- Bacterial Biotransformation [1]: Compound metabolized
- Bacterial Biotransformation [2]: Compound metabolized
- Bacterial Biotransformation [3]: Compound NOT metabolized
- Bacterial Biotransformation [4]: Compound metabolized
- Bacterial Biotransformation [5]: Compound metabolized
- Bacterial Biotransformation [6]: Compound NOT metabolized
- Bacterial Biotransformation [7]: Compound metabolized
- Bacterial Biotransformation [8]: Compound metabolized
- Bacterial Biotransformation [9]: Compound NOT metabolized
- Bacterial Biotransformation [10]: Compound metabolized
- Bacterial Biotransformation [11]: Compound metabolized
- Bacterial Biotransformation [12]: Compound NOT metabolized
- Bacterial Biotransformation [20]: Compound metabolized
- Bacterial Biotransformation [13]: Compound NOT metabolized
- Bacterial Biotransformation [15]: Compound metabolized
- Bacterial Biotransformation [16]: Compound metabolized
- Bacterial Biotransformation [17]: Compound metabolized

SMILES: CC(C)OC(=O)C(C)(C)Oc1ccc(C(=O)c2ccc(Cl)cc2)cc1 [FENOFIBRATE]
- Bacterial Biotransformation [1]: Compound NOT metabolized
- Bacterial Biotransformation [2]: Compound metabolized
- Bacterial Biotransformation [5]: Compound NOT metabolized
- Bacterial Biotransformation [6]: Compound NOT metabolized
- Bacterial Biotransformation [7]: Compound NOT metabolized
- Bacterial Biotransformation [8]: Compound NOT metabolized
- Bacterial Biotransformation [9]: Compound metabolized
- Bacterial Biotransformation [10]: Compound NOT metabolized
- Bacterial Biotransformation [11]: Compound NOT metabolized
- Bacterial Biotransformation [12]: Compound metabolized
- Bacterial Biotransformation [13]: Compound NOT metabolized
- Bacterial Biotransformation [14]: Compound NOT metabolized
- Bacterial Biotransformation [17]: Compound NOT metabolized
- Bacterial Biotransformation [19]: Compound NOT metabolized

SMILES: NC(CO)(CO)CO.O=C(c1ccccc1)c1ccc2n1CCC2C(=O)O (stereo not drawn) [KETOROLAC TROMETHAMINE]
- Bacterial Biotransformation [1]: Compound NOT metabolized
- Bacterial Biotransformation [2]: Compound metabolized
- Bacterial Biotransformation [3]: Compound NOT metabolized
- Bacterial Biotransformation [5]: Compound NOT metabolized
- Bacterial Biotransformation [6]: Compound NOT metabolized
- Bacterial Biotransformation [7]: Compound NOT metabolized
- Bacterial Biotransformation [8]: Compound NOT metabolized
- Bacterial Biotransformation [9]: Compound NOT metabolized
- Bacterial Biotransformation [10]: Compound NOT metabolized
- Bacterial Biotransformation [11]: Compound NOT metabolized
- Bacterial Biotransformation [12]: Compound NOT metabolized
- Bacterial Biotransformation [20]: Compound metabolized
- Bacterial Biotransformation [13]: Compound metabolized
- Bacterial Biotransformation [14]: Compound NOT metabolized
- Bacterial Biotransformation [15]: Compound NOT metabolized
- Bacterial Biotransformation [17]: Compound NOT metabolized
- Bacterial Biotransformation [18]: Compound metabolized
- Bacterial Biotransformation [19]: Compound NOT metabolized

SMILES: Nc1nc2ccc(OC(F)(F)F)cc2s1 [RILUZOLE]
- Bacterial Biotransformation [1]: Compound NOT metabolized
- Bacterial Biotransformation [2]: Compound NOT metabolized
- Bacterial Biotransformation [5]: Compound NOT metabolized
- Bacterial Biotransformation [6]: Compound NOT metabolized
- Bacterial Biotransformation [7]: Compound NOT metabolized
- Bacterial Biotransformation [8]: Compound NOT metabolized
- Bacterial Biotransformation [10]: Compound NOT metabolized
- Bacterial Biotransformation [11]: Compound NOT metabolized
- Bacterial Biotransformation [12]: Compound metabolized
- Bacterial Biotransformation [20]: Compound metabolized
- Bacterial Biotransformation [13]: Compound NOT metabolized
- Bacterial Biotransformation [14]: Compound NOT metabolized
- Bacterial Biotransformation [15]: Compound NOT metabolized
- Bacterial Biotransformation [16]: Compound NOT metabolized
- Bacterial Biotransformation [17]: Compound NOT metabolized
- Bacterial Biotransformation [18]: Compound NOT metabolized
- Bacterial Biotransformation [19]: Compound NOT metabolized

SMILES: CCN(C)C(=O)Oc1cccc([C@H](C)N(C)C)c1.O=C(O)C(O)C(O)C(=O)O [RIVASTIGMINE TARTRATE]
- Bacterial Biotransformation [1]: Compound NOT metabolized
- Bacterial Biotransformation [2]: Compound NOT metabolized
- Bacterial Biotransformation [3]: Compound NOT metabolized
- Bacterial Biotransformation [4]: Compound NOT metabolized
- Bacterial Biotransformation [5]: Compound NOT metabolized
- Bacterial Biotransformation [6]: Compound NOT metabolized
- Bacterial Biotransformation [7]: Compound NOT metabolized
- Bacterial Biotransformation [8]: Compound NOT metabolized
- Bacterial Biotransformation [9]: Compound NOT metabolized
- Bacterial Biotransformation [10]: Compound NOT metabolized
- Bacterial Biotransformation [11]: Compound NOT metabolized
- Bacterial Biotransformation [12]: Compound NOT metabolized
- Bacterial Biotransformation [20]: Compound NOT metabolized
- Bacterial Biotransformation [13]: Compound NOT metabolized
- Bacterial Biotransformation [15]: Compound NOT metabolized
- Bacterial Biotransformation [17]: Compound NOT metabolized
- Bacterial Biotransformation [18]: Compound NOT metabolized
- Bacterial Biotransformation [19]: Compound NOT metabolized

SMILES: O=C1C(CC[S+]([O-])c2ccccc2)C(=O)N(c2ccccc2)N1c1ccccc1 (stereo not drawn) [SULFINPYRAZONE]
- Bacterial Biotransformation [2]: Compound NOT metabolized
- Bacterial Biotransformation [3]: Compound NOT metabolized
- Bacterial Biotransformation [4]: Compound NOT metabolized
- Bacterial Biotransformation [5]: Compound NOT metabolized
- Bacterial Biotransformation [6]: Compound NOT metabolized
- Bacterial Biotransformation [9]: Compound NOT metabolized
- Bacterial Biotransformation [10]: Compound NOT metabolized
- Bacterial Biotransformation [11]: Compound metabolized
- Bacterial Biotransformation [12]: Compound NOT metabolized
- Bacterial Biotransformation [20]: Compound metabolized
- Bacterial Biotransformation [13]: Compound NOT metabolized
- Bacterial Biotransformation [14]: Compound NOT metabolized
- Bacterial Biotransformation [15]: Compound NOT metabolized
- Bacterial Biotransformation [16]: Compound NOT metabolized
- Bacterial Biotransformation [17]: Compound NOT metabolized
- Bacterial Biotransformation [18]: Compound NOT metabolized
- Bacterial Biotransformation [19]: Compound NOT metabolized

SMILES: Cc1ccc(-c2nc3ccc(C)cn3c2CC(=O)N(C)C)cc1 [ZOLPIDEM]
- Bacterial Biotransformation [1]: Compound NOT metabolized
- Bacterial Biotransformation [2]: Compound NOT metabolized
- Bacterial Biotransformation [3]: Compound NOT metabolized
- Bacterial Biotransformation [4]: Compound NOT metabolized
- Bacterial Biotransformation [5]: Compound NOT metabolized
- Bacterial Biotransformation [6]: Compound NOT metabolized
- Bacterial Biotransformation [7]: Compound NOT metabolized
- Bacterial Biotransformation [8]: Compound NOT metabolized
- Bacterial Biotransformation [9]: Compound NOT metabolized
- Bacterial Biotransformation [10]: Compound NOT metabolized
- Bacterial Biotransformation [11]: Compound NOT metabolized
- Bacterial Biotransformation [12]: Compound NOT metabolized
- Bacterial Biotransformation [13]: Compound NOT metabolized
- Bacterial Biotransformation [14]: Compound NOT metabolized
- Bacterial Biotransformation [15]: Compound NOT metabolized
- Bacterial Biotransformation [17]: Compound NOT metabolized
- Bacterial Biotransformation [18]: Compound NOT metabolized
- Bacterial Biotransformation [19]: Compound NOT metabolized
